The structures appear in SMILES notation. A value given as a limit tells only on which side of the number the result lay.

Broadly, the IC50 is the concentration needed to halve the response being measured. A low value points to inhibition by little substance.

Experiment [1] has as its system gel-filtered platelets. Kind of experiment: In vitro inhibition of thrombin-induced gel-filtered platelet aggregation. The experiment is classed as cell-based. The settings on record: Homo sapiens; for inhibition at 50 µM: read-out: Platelet Aggregation % Inh. (50µM). The protocol: IN VITRO INHIBITION OF THROMBIN-INDUCED GEL-FILTERED PLATELET AGGREGATION ASSAY.
The percentage of platelet aggregation is calculated as an increase in light transmission of compound-treated platelet concentrate vs. control-treated platelet concentrate. Human blood is obtained from drug free, normal donors into tubes containing 0.13M sodium citrate. Platelet rich plasma (PRP) is collected by centrifugation of whole blood at 200 x g for 10 min at 25°C. The PRP (5 mL) is gel filtered through Sepharose 2B (bed volume 50 mL), and the platelet count is adjusted to 2x10^7 platelets per sample. The following constituents are added to a siliconized cuvette: concentrated platelet filtrate and Tyrode's buffer (0.14M NaCl, 0.0027MKCl, 0.012M NaHCO3, 0.76 mM Na2HPO4, 0.0055M glucose, 2 mg/mL BSA and 5.0mM HEPES @ pH 7.4) in an amount equal to 350 µl, 50 µl of 20 mM calcium and 50 µl of the test compound. Aggregation is monitored in a BIODATA aggregometer for the 3 min following the addition of agonist (thrombin 50 µl of 1 unit/mL).

In experiment [2] the target is GPIIb/IIIa (Homo sapiens, UniProt P05106+P08514). Kind of experiment: In vitro solid phase purified glycoprotein IIb/IIIa binding assay (biotinylated fibrinogen binding). The settings on record: for inhibition at 50 µM: read-out: Fibrinogen Binding % Inh. (50 µM). The protocol:
IN VITRO SOLID PHASE PURIFIED GLYCOPROTEIN IIB/IIIA BINDING ASSAY.
The plate is covered and incubated overnight at 4°C. The GPIIb/IIa solution is discarded and 150 µl of 5% BSA is added and incubated at RT for 1-3 h. The plate is washed extensively with modified Tyrodes buffer. Biotinylated fibrinogen (25 µl/well) at 2 x final concentration is added to the wells that contain the test compounds (25 µl/well). The plate is covered and incubated at RT for 2-4 h. Twenty minutes prior to incubation completion, one drop of Reagent A (Vecta Stain ABC Horse Radish Peroxidase kit, Vector Laboratories, Inc.) and one drop Reagent B are added with mixing to 5 mL modified Tyrodes buffer mix and let stand. The ligand solution is discarded and the plate washed (5 x 200 µl/well) with modified Tyrodes buffer. Vecta Stain HRP-Biotin-Avidin reagent (50 µl/well, as prepared above) is added and incubated at RT for 15 min. The Vecta Stain solution is discarded and the wells washed (5 x 200 µl/well) with modified Tyrodes buffer. Developing buffer (10 mL of 50 mM citrate/phosphate buffer @ pH 5.3, 6 mg o-phenylenediamine, 6 µl 30% H2O2; 50 µl/well) is added and incubated at RT for 3-5 min, and then 2N H2SO4 (50 µl/well) is added. The absorbance is read at 490 nm.

Chain of GPIIb/IIIa (P08514 32-887 limits assumed): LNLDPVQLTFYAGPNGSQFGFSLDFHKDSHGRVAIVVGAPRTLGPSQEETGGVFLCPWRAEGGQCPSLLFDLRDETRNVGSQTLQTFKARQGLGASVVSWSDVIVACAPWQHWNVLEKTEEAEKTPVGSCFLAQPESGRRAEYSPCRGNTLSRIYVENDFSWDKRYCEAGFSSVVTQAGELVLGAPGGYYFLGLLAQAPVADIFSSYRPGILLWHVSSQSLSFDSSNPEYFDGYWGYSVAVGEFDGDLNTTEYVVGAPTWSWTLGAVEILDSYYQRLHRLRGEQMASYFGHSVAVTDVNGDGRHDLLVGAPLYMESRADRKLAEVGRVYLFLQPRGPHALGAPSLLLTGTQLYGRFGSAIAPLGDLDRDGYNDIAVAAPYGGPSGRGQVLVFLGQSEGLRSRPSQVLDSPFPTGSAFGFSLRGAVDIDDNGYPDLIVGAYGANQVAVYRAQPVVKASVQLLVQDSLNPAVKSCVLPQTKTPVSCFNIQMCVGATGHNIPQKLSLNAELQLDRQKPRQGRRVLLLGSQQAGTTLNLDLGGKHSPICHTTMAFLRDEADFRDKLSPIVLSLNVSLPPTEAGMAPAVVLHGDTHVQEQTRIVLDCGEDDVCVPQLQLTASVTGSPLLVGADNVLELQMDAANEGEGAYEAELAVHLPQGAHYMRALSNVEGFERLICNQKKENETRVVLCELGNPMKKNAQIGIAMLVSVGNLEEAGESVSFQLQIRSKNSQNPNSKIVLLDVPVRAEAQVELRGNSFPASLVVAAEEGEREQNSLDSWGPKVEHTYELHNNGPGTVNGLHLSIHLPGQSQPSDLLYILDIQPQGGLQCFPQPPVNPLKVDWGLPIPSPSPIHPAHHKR
Chain of GPIIb/IIIa (P08514 891-1039 partner limits assumed): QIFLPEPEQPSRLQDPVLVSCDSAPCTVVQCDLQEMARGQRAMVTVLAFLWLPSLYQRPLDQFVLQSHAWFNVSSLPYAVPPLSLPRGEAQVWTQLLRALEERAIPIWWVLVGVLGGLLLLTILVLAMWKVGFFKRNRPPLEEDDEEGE
Chain of GPIIb/IIIa (P05106 27-788): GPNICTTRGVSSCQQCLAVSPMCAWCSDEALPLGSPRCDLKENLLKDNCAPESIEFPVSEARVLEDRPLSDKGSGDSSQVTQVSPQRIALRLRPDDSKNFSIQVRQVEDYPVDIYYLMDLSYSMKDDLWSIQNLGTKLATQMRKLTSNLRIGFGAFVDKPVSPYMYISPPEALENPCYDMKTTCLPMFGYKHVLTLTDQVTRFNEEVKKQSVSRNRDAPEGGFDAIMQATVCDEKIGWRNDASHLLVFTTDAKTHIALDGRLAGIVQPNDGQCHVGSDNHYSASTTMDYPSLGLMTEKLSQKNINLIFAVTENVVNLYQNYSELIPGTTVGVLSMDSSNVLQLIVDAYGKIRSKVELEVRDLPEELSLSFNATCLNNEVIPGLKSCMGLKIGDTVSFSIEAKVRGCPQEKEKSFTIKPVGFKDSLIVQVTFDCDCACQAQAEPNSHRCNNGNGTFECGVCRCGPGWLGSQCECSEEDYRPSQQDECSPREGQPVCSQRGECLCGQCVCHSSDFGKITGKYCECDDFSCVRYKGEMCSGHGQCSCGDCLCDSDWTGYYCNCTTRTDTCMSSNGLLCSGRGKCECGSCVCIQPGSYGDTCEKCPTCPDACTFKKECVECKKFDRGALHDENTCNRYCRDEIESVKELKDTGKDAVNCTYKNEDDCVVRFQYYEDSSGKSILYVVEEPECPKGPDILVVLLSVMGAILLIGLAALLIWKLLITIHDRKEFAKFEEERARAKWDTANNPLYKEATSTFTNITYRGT

`O=C(O)C[C@H](NC(=O)[C@@H]1CCCN(C(=O)CCC2CCNCC2)C1)c1cncc(Br)c1` [Compound 32, N-3-(4-Piperidinepropionyl)-R-(-)nipecotyl-[(S)-3-amino-3-(5-bromo-3-pyridyl)] propionic acid]: half-maximal inhibition in experiment [1] (IC50) required 20 nM. In experiment [2], the inhibition at 50 µM came to 100%.
In the case of `O=C(NC[C@@H]1NC(=O)N(Cc2ccccc2)C1=O)[C@@H]1CCCN(C(=O)CCC2CCNCC2)C1` [Compound 29, N-3-(4-Piperidinepropionyl)-R-(-)nipecotyl-aminomethyl-5-(S)-(3-N-benzyl)imidazoline-2.4-dione], in experiment [1], it took 42000 nM to reach half-maximal inhibition (IC50) and the inhibition at 50 µM is 100%. The inhibition at 50 µM in experiment [2] worked out at 100%.
Turning to `O=C(O)CCNC(=O)C1CCCN(S(=O)(=O)CCC2CCNCC2)C1` (stereo not drawn) [Compound 12, N-3-(4-Piperidineethanesulfonyl)-nipecotyl-3-aminopropionic acid], the results for the concentration for half-maximal inhibition (IC50) in experiment [1] and in experiment [2] were 15500 nM and 25 nM, respectively. The inhibition at 50 µM in experiment [1] is 88%; in experiment [2], 97%.
For `O=C(O)CC(NC(=O)C1CCN(C(=O)CCC2CCNCC2)CC1)c1ccc(C(=O)O)cc1` (stereo not drawn) [Compound 6], the IC50 in experiment [1] worked out at 73000 nM; in experiment [2], 197 nM. The inhibition at 50 µM was determined as 71.2% in experiment [1] and 90.7% in experiment [2].
`O=C(O)C[C@H](NC(=O)C1CCCN(CCCC2CCNCC2)C1)c1ccc2c(c1)OCO2` (stereo partly drawn) [Compound 20, N-3-(4-Piperidinepropyl)-nipecotyl-[(S)-3-amino-3-(3,4-methylenedioxyphenyl)]propionic acid]: in experiment [1], the IC50 was 37000 nM and the inhibition at 50 µM was 89.7%. For the same molecule, in experiment [2], the inhibition at 50 µM was 99%.
For the molecule `O=C(O)C(O)CNC(=O)[C@@H]1CCCN(C(=O)CCC2CCNCC2)C1` (single isomer, unassigned) [Compound 11, N-3-(4-Piperidinepropionyl)-R-(-)-nipecotyl-(3-amino-2-hydroxy) propionic acid], in experiment [1], it took 1550 nM to reach half-maximal inhibition (IC50) and the inhibition at 50 µM was found to be 99.2%. For the same molecule, the inhibition at 50 µM in experiment [2] came out at 79.6%.
As to `O=C(O)C1CN(C(=O)C2CCCN(C(=O)CCC3CCNCC3)C2)CCC1=O` (stereo not drawn) [Compound 8, N-3-(4-Piperidinepropionyl)-nipecotyl-4-oxonipecotic acid], in experiment [2], the IC50 is 332 nM and the inhibition at 50 µM came out at 93%.
With `O=C(NCCc1nnn[nH]1)C1CCCN(C(=O)CCC2CCNCC2)C1` (stereo not drawn) [Compound 13, N-3-(4-Piperidinepropionyl)-nipecotyl-5H-(2-aminoethyl)tetrazole], the IC50 in experiment [1] came to 25500 nM; in experiment [2], 1390 nM. The inhibition at 50 µM in experiment [1] was determined as 67%; in experiment [2], 95%.
Regarding `NCCCCCC(=O)N1CCCC(C(=O)NC(CC(=O)O)c2cccnc2)C1` (stereo not drawn) [Compound 10, N-(6-Aminocaproyl)-nipecotyl-3-amino-3-(3-pyridyl)propionic acid], in experiment [1], the IC50 was 1600 nM and the inhibition at 50 µM was found to be 85%. In experiment [2], the inhibition at 50 µM came to 91.3%.
The matching figures for `COC(=O)[C@@H](CC(=O)O)NC(=O)C1CCCN(C(=O)OCC2CCNCC2)C1` (stereo partly drawn) [Compound 3, N-(4-Piperidinemethyloxycarbonyl)-nipecotyl-D-aspartic acid α-methyl ester]: more than 100000 nM, 26.2% and 81%.
`CN1CCC(CCC(=O)N2CCCC(C(=O)NCCC(=O)O)C2)CC1` (stereo not drawn) [Compound 7, N-3-(4-N-Methyl-piperidinepropionyl)-nipecotyl-3-aminopropionic acid]: in experiment [1], the IC50 worked out at 2400 nM and the inhibition at 50 µM is 75.6%. Besides, in experiment [2], the half-maximal inhibitory concentration (IC50) was determined as 6 nM and the inhibition at 50 µM was 100%.
The matching figures for `CC(CNC(=O)C1CCCN(C(=O)NCC2CCNCC2)C1)C(=O)O` (stereo not drawn) [Compound 2, N-(4-Piperidinemethylaminocarbonyl)-nipecotyl-(3-amino-2-methyl) propionic acid]: 54000 nM, 95.7%, 27 nM and 93%.
Turning to `O=C(O)CC(NC(=O)C1CCCN(C(=O)CCC2CCNCC2)C1)c1ccccc1` (stereo not drawn) [Compound 1, N-3-(4-Piperidinepropionyl)-nipecotyl-(3-amino-3-phenyl) propionic acid], in experiment [1], the concentration for half-maximal inhibition (IC50) stood at 3600 nM and the inhibition at 50 µM was determined as 83%. For the same molecule, in experiment [2], the half-maximal inhibitory concentration (IC50) stood at 3 nM and the inhibition at 50 µM came to 95%.
Consider `Cc1ccc(C(CC(=O)O)NC(=O)C2CCN(C(=O)CCC3CCNCC3)C2)cc1` (stereo not drawn) [Compound 4, N-3-(4-Piperidinepropionyl)-pyrrolidine-3-carboxy-[3-amino-3-(4-tolyl)]propionic acid], for which the IC50 in experiment [1] turned out to be 26000 nM; in experiment [2] it was 121 nM. The inhibition at 50 µM in experiment [1] is 81%; in experiment [2], 89.9%.
With `O=C(O)CC(NC(=O)C1CCCCN(C(=O)CCC2CCNCC2)C1)c1cnc2ccccc2c1` (stereo not drawn) [Compound 17, N-3-(4-Piperidinepropionyl)-hexahydroazepine-3-carboxy-[3-amino-3-(3-quinolinyl)]propionic acid], in experiment [1], half-maximal inhibition (IC50) required 450 nM and the inhibition at 50 µM was 89.6%. For the same molecule, in experiment [2], the IC50 was found to be 5 nM and the inhibition at 50 µM is 96%.
In the case of `N=CN1CCC(CCC(=O)N2CCCC(C(=O)NC(CC(=O)O)c3cccnc3)C2)CC1` [Compound 33, N-3-(4-Formamidinopiperidinepropionyl)-R-(-)nipecotyl-[(S)-3-amino-3-(3-pyridyl)] propionic acid], in experiment [1], it took 300 nM to reach half-maximal inhibition (IC50) and the inhibition at 50 µM is 100%. In experiment [2], the inhibition at 50 µM turned out to be 100%.
With `C[Si](C)(C)C#CC(CC(=O)O)NC(=O)C1CCCN(C(=O)CCC2CCNCC2)C1` (stereo not drawn) [Compound 9, N-3-(4-Piperidinepropionyl)-nipecotyl-[3-amino-3-(2-trimethylsilylethynyl)]propionic acid], in experiment [1], the IC50 stood at 370 nM and the inhibition at 50 µM was found to be 90.9%. Further, in experiment [2], the IC50 amounted to 2 nM and the inhibition at 50 µM was 99%.
Turning to `CN1CCN(CCC(=O)N2CCCC(C(=O)NC(CC(=O)O)c3ccc4c(c3)OCO4)C2)CC1` (stereo not drawn) [Compound 14, N-3-(4-N-Methyl-piperazinepropionyl)-nipecotyl-[3-amino-3-(3,4-methylenedioxyphenyl)]propionic acid], the 50% inhibitory concentration (IC50) in experiment [1] came out at 910 nM; in experiment [2], 4 nM. The inhibition at 50 µM in experiment [1] was 91%; in experiment [2], 99%.
The matching figures for `CC(CC(=O)O)NC(=O)C1CCN(C(=O)CCC2CCNCC2)CC1` (stereo not drawn) [Compound 5, N-3-(4-Piperidinepropionyl)-isonipecotyl-(3-amino-3-methyl) propionic acid]: 10000 nM, 12 nM, 100% and 89%.

These data come from EP1184374A1, “Carboxamide derivatives of pyrrolidine, piperidine and hexahydroazepine for the treatment of thrombosis disorders” (ORTHO PHARMACEUTICAL CORPORATION, priority 1996, dated 1997).
